Patent US6136992A, “2-alkoxy estradiols and derivatives thereof” (The United States of America as represented by the …, priority 1998, dated 2000)
Read-outs that look alike come from different tables or passages of the source.

Experiments:
Type in all cases: cell-based
[1] = test system: SF-539 central nervous system (CNS) cancer cells; test: NCI in vitro anticancer screen, SF-539 CNS cancer; conditions: Homo sapiens
Description: (§1) The effects of the analogs on cancer cell growth was investigated in the National Cancer Institute (NCI) Developmental Therapeutics Program's in vitro panel of approximately 55 cell lines (Grever et al., Seminars in Oncology 19:622 (1992), Alley et al., Cancer Research 48:589 (1988) and Montes et al., J. National Cancer Institute 83:757 (1991)). Representative results are listed in Table 1 for HOP-62 non-small-cell lung cancer cells, HCT-116 colon cancer cells, SF-539 central nervous system (CNS) cancer cells, UACC-62 melanoma cells, OVCAR ovarian cancer cells, SN12-C renal cancer cells, DU-145 prostate cancer cells, and MDA-MB-435 breast cancer cells.
(§2) ^a The cytotoxicity GI50 values are the concentrations

UACC-62 melanoma cells = test: NCI in vitro anticancer screen, UACC-62 melanoma; conditions: Homo sapiens
Description: as §1, §2

CCRF-CEM = test: NCI screen, leukemia; conditions: Homo sapiens, read-out: Log10 GI50, CCRF-CEM (converted)
K562 = test: NCI screen, leukemia; conditions: Homo sapiens, read-out: Log10 GI50, K562 (converted)
RPMI-8226 = test: NCI screen, leukemia; conditions: Homo sapiens, read-out: Log10 GI50, RPMI-8226 (converted)
NCI-H23 = test: NCI screen, non-small cell lung cancer; conditions: Homo sapiens, read-out: Log10 GI50, NCI-H23 (converted)
NCI-H322M = test: NCI screen, non-small cell lung cancer; conditions: Homo sapiens, read-out: Log10 GI50, NCI-H322M (converted)
NCI-H460 = test: NCI screen, non-small cell lung cancer; conditions: Homo sapiens, read-out: Log10 GI50, NCI-H460 (converted)
NCIH-522 = test: NCI screen, non-small cell lung cancer; conditions: Homo sapiens, NCI-H522, read-out: Log10 GI50, NCIH-522 (converted)
SW-260 = test: NCI screen, colon cancer; conditions: Homo sapiens, read-out: Log10 GI50, SW-260 (converted)
SF-295 = test: NCI screen, CNS cancer; conditions: Homo sapiens, read-out: Log10 GI50, SF-295 (converted)
U251 = test: NCI screen, CNS cancer; conditions: Homo sapiens, U-251, read-out: Log10 GI50, U251 (converted)
LOX IMVI = test: NCI screen, melanoma; conditions: Homo sapiens, read-out: Log10 GI50, LOX IMVI (converted)
M14 = test: NCI screen, melanoma; conditions: Homo sapiens, read-out: Log10 GI50, M14 (converted)
SK-MEL-5 = test: NCI screen, melanoma; conditions: Homo sapiens, read-out: Log10 GI50, SK-MEL-5 (converted)
ACHN = test: NCI screen, renal cancer; conditions: Homo sapiens, read-out: Log10 GI50, ACHN (converted)
RXF 393 = test: NCI screen, renal cancer; conditions: Homo sapiens, read-out: Log10 GI50, RXF 393 (converted)
MCF7/ADR-RES = test: NCI screen, breast cancer; conditions: Homo sapiens, read-out: Log10 GI50, MCF7/ADR-RES (converted)
HS 578T = test: NCI screen, breast cancer; conditions: Homo sapiens, read-out: Log10 GI50, HS 578T (converted)
MDA-N = test: NCI screen, breast cancer; conditions: Homo sapiens, read-out: Log10 GI50, MDA-N (converted)
BT-549 = test: NCI screen, breast cancer; conditions: Homo sapiens, read-out: Log10 GI50, BT-549 (converted)

Measured: GI50

C[C@]12CC[C@@H]3c4cc(OCC(F)(F)F)c(O)cc4C(=NO)C[C@H]3[C@@H]1CC[C@@H]2O [Compound 12, 2-(2',2', 2'-Trifluoroethoxy)-6-Hydroximino-Estra-1,3,5(10)-Triene-3,17β-Diol]
< 10 nM: [1]; SF-539, CNS Cancer, read-out: Log10 GI50, SF-539 (converted) | [1]; read-out: cytotoxicity GI50, CNS SF-539 | UACC-62 melanoma cells; UACC-62, read-out: cytotoxicity GI50, Melanoma UACC-62 | UACC-62 melanoma cells; UACC-62, Melanoma, read-out: Log10 GI50, UACC-62 (converted) | CCRF-CEM | K562 | RPMI-8226 | NCI-H23 | NCI-H322M | NCI-H460 | NCIH-522 | SW-260 | SF-295 | U251 | LOX IMVI | M14 | SK-MEL-5 | ACHN | RXF 393 | MCF7/ADR-RES | HS 578T | MDA-N | BT-549
